We go through 12 compounds from publication PMC7179112, “Antimicrobial, Antioxidant, and Anticancer Activities of Some Novel Isoxazole Ring Containing Chalcone and Dihydropyrazole Derivatives” (Molecules, 2020).

The test system of assay [1] is Human Normal Cells (L02). Put plainly: MTT assay toxicity on normal cells. The class given is cell-based. Background: Tetrazolium assays rely on reduction of a dye to a coloured formazan, in cell work by metabolically active cells.
Assay [2] has as its system Staphylococcus aureus. Put plainly: Antibacterial activity, serial tube dilution method. Type of assay: cell-based. The following applies: for MIC: Staphylococcus aureus, Gram-positive, serial tube dilution, read-out: MIC S aureus. As for the experimental part: (§1) The target chalcones (17–31) and pyrazolines (32–46) were tested for their antimicrobial activities by serial tube dilution method against two types of bacterial and fungal strains (Table 1 and Table 2). The bacterial strains used for the testing, including Gram-positive Staphylococcus aureus and Gram-negative Pseudomonas aeruginosa, whereas the fungal strains employed were Aspergillus niger and Candida tropicalis.
(§2) The antibacterial and antifungal activity of the novel chalcones (17 to 31) and dihydropyrazoles (32 to 46) against the selected bacterial and fungal strains was assessed by following the procedure described in our previous paper.

Assay [3] deals with Pseudomonas aeruginosa. Described as above. Type of assay: cell-based. Conditions: for MIC: Pseudomonas aeruginosa, Gram-negative, serial tube dilution, read-out: MIC P aeruginosa. As for the experimental part: as §1, §2
Assay [4] concerns prostate cancer cell line, DU-145. Put plainly: MTT assay anticancer activity. The class given is cell-based. Conditions: for IC50: Homo sapiens, MTT assay, mean ± SD (n = 3). As to the method:
All the 30 compounds were evaluated for their anticancer potency against the prostate cancer cell line, DU-145, employing colorimetric tetrazolium dye (MTT) assay. […] Among the disubstituted series 20–25, substitution at position 3 and 4 (compound 24) produced the best activity but was lower than the standard. […] Similar phenomena can be seen among the dihydropyrazole series.
The in vitro anticancer activity of chalcones (17 to 31) and dihydropyrazoles (32 to 46) was evaluated by the Mosmann’s MTT assay as described previously.

The test system of assay [5] is Aspergillus niger. Put plainly: Antifungal activity, serial tube dilution method. The class given is cell-based. As to the method:
as §1, §2

The test system of assay [6] is Candida tropicalis. Put plainly: Antifungal activity, serial tube dilution method. Type of assay: cell-based. Conditions: read-out: MIC C tropicalis. As for the experimental part: as §1, §2
A short description of assay [7]: DPPH free radical scavenging assay. The following applies: antioxidant activity; average of three independent experiments. As for the experimental part:
The antioxidant activity of all 30 compounds was assessed using 1,1-diphenyl-2-picrylhydrazine (DPPH) free radical scavenging assay and the results are the average of three independent experiments (Table 3). Gallic acid was employed as a positive control. […] In the disubstituted series (20–25), compound 25 with substitutions at position 3 and 5 on the phenyl ring gave the highest activity of 9 µg/mL.
The purpose of this study was to evaluate the antioxidant activity of chalcones and pyrazolines using the DPPH free radical assay. The percentage of antioxidant activity (AA%) of all the compounds was assessed by the DPPH free radical assay. The measurement of the DPPH radical scavenging activity was performed according to methodology described by Brand-Williams et al. The samples were reacted with the stable DPPH radical in an ethanol solution. A 0.1 mM solution of DPPH was prepared by dissolving DPPH in methanol. Gallic acid was taken as a reference standard and different concentrations of test samples (5–100 µg/mL) and standard (1.0, 2.5, and 5.0 µg/mL) were prepared using methanol. One milliliter of 0.1 mM DPPH solution was added to 3 mL of all concentrations of test samples and standard separately. These mixtures were kept in dark for about 30 min and the absorbance was measured at 517 nm. The capability to scavenge the DPPH radical was calculated using the formula:(1) DPPH scavanged (%)= Absorbance of control−Absorbance of sample/Absorbance of control∗100 when DPPH reacted with an antioxidant compound and was reduced, the change in color (from deep violet to light yellow) was read [Absorbance (Abs)] at 517 nm after […] of reaction using a UV-VIS spectrophotometer.
On the technique in general: Loss of DPPH colour is used to gauge radical scavenging.

For assay [8], the system named is Staphylococcus aureus and Pseudomonas aeruginosa. Put plainly: Antibacterial activity (strain not named). Type of assay: cell-based. As to the method: as §1, §2
The test system of assay [9] is Aspergillus niger and Candida tropicalis. Put plainly: Antifungal activity (strain not named). The class given is cell-based. As for the experimental part:
as §1, §2

The subject of assay [10] is bacterial and fungal strains (S. aureus, P. aeruginosa, A. niger, C. tropicalis). Put plainly: Antibacterial and antifungal activity (all strains). The following applies: range over bacterial and fungal strains. The class given is cell-based. As to the method: as §1, §2
[11] abbreviates: text/figure value, strain not named.

The structures appear in SMILES notation. Converted amounts (≈) assume the structure as drawn. Where only a bound is given, the exact number is not on record here.

Broadly, the IC50 is the point on the concentration scale where inhibition reaches its midpoint. A low value points to greater potency in that assay. By MIC is commonly meant the smallest concentration in the dilution series that meets the test's criterion for growth inhibition. With `COc1ccc(C2CC(c3ccno3)=NN2C(N)=O)c(F)c1OC` (stereo not drawn) [Compound 45], the values for the IC50 in assay [1] and in [4] were greater than 40 µg/mL and 2 ± 1 µg/mL (≈ 5.98 µM), respectively. Moreover, the MIC in [2] is 8 µg/mL (≈ 23.9 µM); in [3], 8 µg/mL (≈ 23.9 µM); in assay [5], 0.5 µg/mL (≈ 1.5 µM); in assay [6] it was 1 µg/mL (≈ 2.99 µM); in [8] (setting [11]), 8 µg/mL (≈ 23.9 µM). In addition, in assay [4] (given as MIC in text/Figure 3), the “Anticancer potency MIC” value came out at 2 µg/mL. In addition, in assay [7], the “DPPH assay IC50” value amounted to 55 ± 2 µg/mL. In addition, in assay [8] (45 (MIC 8) vs. 41 (MIC 64)), the “fold improvement of antibacterial activity vs. 41” value was determined as 8 fold.

With `COc1cccc(OC)c1C1CC(c2ccno2)=NN1C(N)=O` (stereo not drawn) [Compound 38], the MIC in [9] (setting [11]) worked out at 2 µg/mL (≈ 6.32 µM); in assay [2], 32 µg/mL (≈ 101 µM); in assay [3], 16 µg/mL (≈ 50.6 µM); in assay [5], 2 µg/mL (≈ 6.32 µM); in assay [6], 2 µg/mL (≈ 6.32 µM). The values for the IC50 in assay [1] and in [4] were greater than 40 µg/mL and 20 ± 2 µg/mL (≈ 63.2 µM), respectively. In addition, the “DPPH assay IC50” value in assay [7] was 28 ± 1 µg/mL.

With `COc1ccc(C2CC(c3ccno3)=NN2C(N)=O)cc1` (stereo not drawn) [Compound 32], the MIC in assay [9] (setting [11]) was found to be 4 µg/mL (≈ 14 µM); in assay [2] it was 16 µg/mL (≈ 55.9 µM); in assay [3] it was 16 µg/mL (≈ 55.9 µM); in [5] it was 4 µg/mL (≈ 14 µM); in [6], 4 µg/mL (≈ 14 µM). Besides, the results for the IC50 in assay [1] and in assay [4] were greater than 40 µg/mL and 28 ± 1 µg/mL (≈ 97.8 µM), respectively. In addition, in [7], the “DPPH assay IC50” value is given as 44 ± 1 µg/mL.

As for `COc1cc(/C=C/C(=O)c2ccno2)cc(OC)c1OC` [Compound 29], the IC50 is greater than 40 µg/mL in assay [1] and 8 ± 2 µg/mL (≈ 27.7 µM) in assay [4]. The MIC in assay [10] was 64 to 256 µg/mL (≈ 221 to 885 µM); in assay [2], 64 µg/mL (≈ 221 µM); in assay [3], 128 µg/mL (≈ 442 µM); in assay [5], 128 µg/mL (≈ 442 µM); in assay [6], 256 µg/mL (≈ 885 µM). Also, in assay [7], the “DPPH assay IC50” value came out at 8 ± 2 µg/mL.

For the compound `COc1ccccc1C1CC(c2ccno2)=NN1C(N)=O` (stereo not drawn) [Compound 34], the MIC in assay [9] (setting [11]) is 8 µg/mL (≈ 27.9 µM); in assay [2], 16 µg/mL (≈ 55.9 µM); in assay [3], 16 µg/mL (≈ 55.9 µM); in assay [5], 8 µg/mL (≈ 27.9 µM); in assay [6], 8 µg/mL (≈ 27.9 µM). Besides, the IC50 was greater than 40 µg/mL in assay [1] and 32 ± 2 µg/mL (≈ 112 µM) in assay [4]. Moreover, the “DPPH assay IC50” value in [7] is 38 ± 2 µg/mL.

For `COc1cc(/C=C/C(=O)c2ccno2)cc(OC)c1` [Compound 25], the IC50 is greater than 40 µg/mL in assay [1] and 12 ± 1 µg/mL (≈ 46.3 µM) in assay [4]. Also, the MIC is 64 to 256 µg/mL (≈ 247 to 987 µM) in assay [10]; 256 µg/mL (≈ 987 µM) in assay [2]; 256 µg/mL (≈ 987 µM) in [3]; 256 µg/mL (≈ 987 µM) in assay [5]; 512 µg/mL (≈ 1970 µM) in assay [6]. The “DPPH assay IC50” value in [7] was found to be 9 ± 1 µg/mL.

Take `COc1cccc(/C=C/C(=O)c2ccno2)c1` [Compound 18]: the figures for the IC50 in assay [1] and in assay [4] were greater than 40 µg/mL and 20 ± 1 µg/mL (≈ 87.2 µM), respectively. Further, the MIC in assay [10] is 64 to 256 µg/mL (≈ 279 to 1120 µM); in assay [2] it was 128 µg/mL (≈ 558 µM); in assay [3], 128 µg/mL (≈ 558 µM); in assay [5], 256 µg/mL (≈ 1120 µM); in assay [6], 256 µg/mL (≈ 1120 µM). Moreover, the “DPPH assay IC50” value in assay [7] was 38 ± 2 µg/mL.

In the case of `COc1cc(Cl)c(C2CC(c3ccno3)=NN2C(N)=O)c(OC)c1` (stereo not drawn) [Compound 46], the IC50 in [9] is 2 ± 1 µg/mL (≈ 5.7 µM); in assay [1] it was greater than 40 µg/mL; in [4], 12 ± 2 µg/mL (≈ 34.2 µM). The “antifungal MIC” value in assay [9] (setting [11]) is reported as 0.5 µg/mL. For the same compound, the MIC in [2] amounted to 8 µg/mL (≈ 22.8 µM); in [3], 8 µg/mL (≈ 22.8 µM); in assay [5], 0.5 µg/mL (≈ 1.43 µM); in assay [6], 0.5 µg/mL (≈ 1.43 µM); in assay [8] (setting [11]), 8 µg/mL (≈ 22.8 µM). Also, the “DPPH assay IC50” value in [7] turned out to be 62 ± 1 µg/mL.

Take `COc1ccc(/C=C/C(=O)c2ccno2)c(OC)c1OC` [Compound 26]: the IC50 in [1] was greater than 40 µg/mL; in [4] it was 10 ± 2 µg/mL (≈ 34.6 µM). Further, the minimal inhibitory concentration (MIC) in [10] is 64 to 256 µg/mL (≈ 221 to 885 µM); in assay [2], 64 µg/mL (≈ 221 µM); in assay [3], 64 µg/mL (≈ 221 µM); in assay [5], 128 µg/mL (≈ 442 µM); in [6], 128 µg/mL (≈ 442 µM). Also, in [7], the “DPPH assay IC50” value worked out at 6 ± 1 µg/mL.

`COc1cc(OC)c(/C=C/C(=O)c2ccno2)c(OC)c1` [Compound 28]: the MIC is 2 µg/mL (≈ 6.91 µM) in [9] (setting [11]); 1 µg/mL (≈ 3.46 µM) in assay [2]; 1 µg/mL (≈ 3.46 µM) in assay [3]; 2 µg/mL (≈ 6.91 µM) in assay [5]; 2 µg/mL (≈ 6.91 µM) in [6]; 1 µg/mL (≈ 3.46 µM) in assay [8] (setting [11]). Also, the results for the IC50 in assay [1] and in [4] were greater than 40 µg/mL and 30 ± 2 µg/mL (≈ 104 µM), respectively. Moreover, the “DPPH assay IC50” value in [7] was 5 ± 1 µg/mL. In addition, in assay [8] (setting [11]), the “antibacterial MIC” value is on record as 1 µg/mL.

For `COc1cc(OC)c(C2CC(c3ccno3)=NN2C(N)=O)c(OC)c1` (stereo not drawn) [Compound 43], the MIC in assay [9] (setting [11]) was determined as 2 µg/mL (≈ 5.77 µM); in [2], 4 µg/mL (≈ 11.5 µM); in assay [3], 4 µg/mL (≈ 11.5 µM); in [5] it was 2 µg/mL (≈ 5.77 µM); in assay [6], 2 µg/mL (≈ 5.77 µM); in assay [8] (setting [11]) it was 4 µg/mL (≈ 11.5 µM). In addition, the half-maximal inhibitory concentration (IC50) is greater than 40 µg/mL in assay [1] and 21 ± 2 µg/mL (≈ 60.6 µM) in assay [4]. Besides, the “fold improvement in the antibacterial activity compared to compound 38” value was determined as 8 fold in assay [2] (first of two values, S aureus inferred from Table 2) and 4 fold in assay [3] (second of two values, P aeruginosa inferred from Table 2). Moreover, the “DPPH assay IC50” value in assay [7] turned out to be 6 ± 1 µg/mL.

Regarding `COc1ccc(C2CC(c3ccno3)=NN2C(N)=O)c(OC)c1OC` (stereo not drawn) [Compound 41], the IC50 in [1] is greater than 40 µg/mL; in assay [4], 9 ± 1 µg/mL (≈ 26 µM). For the same compound, the MIC was 64 µg/mL (≈ 185 µM) in [2]; 128 µg/mL (≈ 370 µM) in assay [3]; 64 µg/mL (≈ 185 µM) in assay [5]; 64 µg/mL (≈ 185 µM) in [6]; 64 µg/mL (≈ 185 µM) in assay [8] (setting [11]). Also, in assay [7], the “DPPH assay IC50” value is reported as 8 ± 1 µg/mL.
